The text below walks through data of publication PMC9411704, “Assessment of the Carcinogenic Potential of Pretomanid in Transgenic Tg.rasH2 Mice” (International Journal of Toxicology, 2022).

Details of series [1]: method as in Drug Prescribing information. As to conditions: ref Drug Prescribing information; cited from earlier work.
The test system of the next series is Rats. The arrangement: method as in Drug Prescribing information. Particulars: ref Drug Prescribing information; cited from earlier work.
In a further series the test system is Mice. Also on record: method as in Drug Prescribing information. As to conditions: ref Drug Prescribing information; cited from earlier work.
The next series concerns Tg.rasH2 mice. Particulars: for Incidence of lung adenoma, single / Incidence of lung carcinoma / Incidence of lung adenoma, multiple / Incidence of lung tumors, combined: three IP injections of 1000 mg/kg/day urethane; for Incidence of lung adenoma, multiple / Incidence of lung tumors, combined: P < 0.01; for Mean body weight / Mean food consumption: (SD). As to the method:
The vehicle was 0.5% carboxymethylcellulose (CMC) with 0.1% Tween 80 (v/v). The vehicle and pretomanid formulations were administered to mice by oral gavage once daily at a dosing volume of 10 mL/kg. Individual dose volumes were calculated based on each animal’s most recently recorded body weight. The dose formulations were magnetically stirred at room temperature for at least 30 minutes prior to and during dosing. The positive control was urethane in 0.9% sodium chloride and was administered via intraperitoneal injection for a total of three times. The positive control formulation was allowed to stand at room temperature for at least 30 minutes and inverted several times prior to dose administration. Aliquots (0.5 to 1.0 mL) were collected from the top, bottom, and middle of the first (week 1), interim (week 13), and last (week 25) pretomanid dose formulations to assess the accuracy of the concentration and/or homogeneity.
Male and female Tg.rasH2 [CByB6F1-Tg(HRAS)2Jic (+/−hemizygous c-Ha-ras)] mice (n = 110/sex) approximately 5 weeks of age were assigned to the main cohort groups to assess carcinogenicity. Male and female wild type CByB6F1 mice [CByB6F1-Tg(HRAS)2Jic (−/−homozygous c-Ha-ras)] (n = 34/sex) approximately 6 weeks of age were assigned to the cohort of mice used to assess the toxicokinetics of pretomanid and its M50 metabolite. […] All mice were obtained from Taconic Biosciences (Germantown, NY). The supplier verified that the mice were murine pathogen-free and females were nulliparous and non-pregnant. At the time of dosing initiation (Day 1), the toxicokinetic mice were approximately 8 weeks of age. On Day 1 of the study, the body weights of the main cohort mice ranged from 19.2 to 25.9 grams (males) and from 15.9 to 20.4 grams (females), and the body weights of the TK cohort mice ranged from 23.4 to 30.2 grams (males) and from 17.6 to 23.5 grams (females).
This study assessed the carcinogenic potential of pretomanid following repeated oral gavage administration once daily for 26 weeks in hemizygous Tg.rasH2 [CByB6F1-Tg(HRAS)2Jic (+/− hemizygous c-Ha-ras)] mice. This study also evaluated the TK profile of pretomanid and metabolite M50 in wild-type CByB6F1 [CByB6F1-Tg(HRAS)2Jic (−/−homozygous c-Ha-ras)] mice. The study was conducted under GLP regulations.
For carcinogenicity assessment (main cohort), 25 mice/sex were included in the vehicle control and pretomanid-treated groups. At the time of dosing initiation (Day 1), the main cohort mice used for assessing carcinogenicity were approximately 7 weeks of age and weighed between 15.9 to 20.4 g (females) and 19.2 to 25.9 g (males). Male groups (Groups 2, 4, and 6) received pretomanid in vehicle at doses of 5, 15, and 40 mg/kg/day, respectively. Female groups (Groups 3, 5, and 7) received pretomanid in vehicle at doses of 10, 30, and 80 mg/kg/day. Positive control mice (n = 10/sex) were included in the main cohort and received three intraperitoneal injections of urethane in saline (1000 mg/kg/injection) on Days 1, 3, and 5. The test and control articles were administered at a dose volume of 10 mL/kg body weight.
Clinical signs, body weights, and food consumption were assessed for the main cohort animals to monitor animal health and any potential toxicity from pretomanid administration. In-life measurements were recorded in Provantis™ Version 9.4.6.3 (Instem, Philadelphia, PA).
All animals, including those in the TK cohort, were observed twice daily for morbidity and mortality. For animals in the main cohort, cage side observations were performed on the day of dosing within 2 hours after the last animal in each group was dosed (Days 1, 3, and 5 for positive control animals).

The structures appear in SMILES notation. Read-outs that look alike come from different tables or passages of the source. Marks after values point to notes of the source that are not given here.

For the compound `O=C(Cn1ccnc1[N+](=O)[O-])NCc1ccccc1` [Benznidazole], the Genotoxicity entry in series [1] is “Positive in vitro and in vivo”.
Take `CCN(CC)C(=O)/C(C#N)=C/c1cc(O)c(O)c([N+](=O)[O-])c1` [Entacapone]: the Carcinogenicity in rats result in the series with Rats is listed as “Carcinogenic”. Further, the Genotoxicity entry in series [1] is “Positive in vitro, negative in vivo”. Besides, the Carcinogenicity in mice entry in the series on Mice is recorded as “Not carcinogenic”.
Turning to `Cc1ncc([N+](=O)[O-])n1CCO` [Metronidazole], the Genotoxicity entry in series [1] is “Positive in vitro, negative in vivo”.
As to `O=C1CN(/N=C/c2ccc([N+](=O)[O-])o2)C(=O)N1` [Nitrofurantion], the Carcinogenicity in rats result with Rats is reported as “Not carcinogenic in Holtzman rats or Sprague-Dawley rats, carcinogenic in male F344/N rats”. For the same compound, the Genotoxicity result in series [1] was “Positive in vitro, negative in vivo”. The Carcinogenicity in mice result in the series with Mice is reported as “Not carcinogenic in Swiss or BDF mice, carcinogenic in female B6C3F1 mice”.
With `CCOC(N)=O` [Positive control, urethane], the “Incidence of lung adenoma, single” value with Tg.rasH2 mice (female) and with Tg.rasH2 mice (male) was 0% in each case. Further, the “Incidence of lung carcinoma” value with Tg.rasH2 mice (female) and with Tg.rasH2 mice (male) was 0% each time. In addition, the “Incidence of lung adenoma, multiple” value with Tg.rasH2 mice (female) and in the series on Tg.rasH2 mice (male) was 100%* each time. Besides, the “Incidence of lung tumors, combined” value with Tg.rasH2 mice (female) and in the series with Tg.rasH2 mice (male) was 100%* throughout. For the same compound, the Mean body weight is recorded as 17.89 (0.57) Grams in the series with Tg.rasH2 mice (female, urethane 1000 mg/kg IP Days 1, 3, 5, study day 1); 19.81 (0.58) Grams in the series on Tg.rasH2 mice (female, urethane 1000 mg/kg IP Days 1, 3, 5, study day 29); 22.11 (0.68) Grams with Tg.rasH2 mice (female, urethane 1000 mg/kg IP Days 1, 3, 5, study day 57); 21.99 (0.71) Grams with Tg.rasH2 mice (male, urethane 1000 mg/kg IP Days 1, 3, 5, study day 1); 24.81 (1.41) Grams with Tg.rasH2 mice (male, urethane 1000 mg/kg IP Days 1, 3, 5, study day 29); 27.73 (1.74) Grams in the series with Tg.rasH2 mice (male, urethane 1000 mg/kg IP Days 1, 3, 5, study day 57). The Mean food consumption with Tg.rasH2 mice (female, urethane 1000 mg/kg IP Days 1, 3, 5, study days 1-8) is recorded as 3.313 (1.048) Grams/Day; in the series with Tg.rasH2 mice (female, urethane 1000 mg/kg IP Days 1, 3, 5, study days 29-36), 6.218 (1.222) Grams/Day; with Tg.rasH2 mice (female, urethane 1000 mg/kg IP Days 1, 3, 5, study days 57-64), 4.210 (0.524) Grams/Day; in the series with Tg.rasH2 mice (male, urethane 1000 mg/kg IP Days 1, 3, 5, study days 1-8), 2.894 (0.461) Grams/Day; in the series with Tg.rasH2 mice (male, urethane 1000 mg/kg IP Days 1, 3, 5, study days 29-36), 4.044 (0.374) Grams/Day; with Tg.rasH2 mice (male, urethane 1000 mg/kg IP Days 1, 3, 5, study days 57-64), 3.956 (0.359) Grams/Day. In addition, in the series with Tg.rasH2 mice (urethane 1000 mg/kg IP Days 1, 3, 5), the Clinical signs entry is “ataxia and decreased motor activity”. Moreover, the Body weight change entry with Tg.rasH2 mice (urethane 1000 mg/kg IP, first week of the study) is “weight loss”. The “Incidence of alveolar bronchiolar adenomas” value with Tg.rasH2 mice (urethane, each sex, P < 0.01 vs vehicle control) is recorded as 100%.
